Assay results: US20230192895A1, “PHARMACOKINETIC & PHARMACODYNAMIC MODEL FOR DETERMINING EFFECTIVE DOSE OF ANTI-TICAGRELOR ANTIBODY” (PhaseBio Pharmaceuticals, Inc., priority 2021, published 2023)

Experiments:
[1] = tested on: P2Y12 reactivity units (PRU); test: animal or person
Description: where Base refers to the baseline (prior to administration of Ticagrelor) value. Emaxi, EC50i, and the Hill coefficient (γ) are parameters to be estimated. The same structural model was used for PRU, VASP, and LTA.
The Emax parameter relating TICA to PRU (as well as VASP and LTA) was fixed to 90%. […] It is anticipated that this parameter value would be large^13 so it was fixed at a large value. […] This value was chosen based on literature^9, 14. Finally, fm was set equal to 0.30.
For parameters that were to be estimated, most of the prior distributions were uninformative or weakly informative.

[2] = tested on: PB2452 binding to biotinylated ticagrelor; test: Selectivity of PB2452 by competition binding with PB2452 to biotinylated ticagrelor; design: species or system human
Description: The chemical starting point for the development of ticagrelor was adenosine triphosphate (ATP), and ticagrelor retains an adenosine-like core.

[3] = tested on: P2Y12 reactivity units (PRU); conditions: fixed in model, not estimated; cited from earlier work
[4] = Final population PK/PD model: PK parameters of TICA, TAM, PB2452 and complexes; type: in vivo, human
Method: A diagram of the model considered is in FIG. 1. Ticagrelor is dosed orally and passes through 2 transit compartments prior to entering the central compartment. […] PB2452 is dosed IV, and directly enters the central compartment. PB2452 can also diffuse into a peripheral compartment. […] In the model, it is assumed that the complexes are cleared at the same rate as PB2452. Additional compartments for the complex to enter where TICA and TAM return to circulation while PB2452 is removed from the system is also included in the model.
The expected result would be an increase in PRI/LTA/VASP to baseline (pre-ticagrelor administration) levels. Baseline PRU/LTA/VASP were added in the models observed value from the data for each subject. An ETA term was added to allow for potential measurement error. […] Astrand et al. (2019).
(§1) The PK parameters associated with this model are in Table 2. […] In the PK/PD model, the parameters associated with the PK of PB2452 (that are not associated with the relationship between PB2452/TICA/TAM) were fixed to these values.
(§2) To achieve improved fit to the study data, multiple adjustments were made to the model. […] These updates led to significant improvements in the fit of the model to the data.
The final step in model development was addition of significant covariates. […] Based on the covariate plots for the final model with the covariates included, no other covariates were added.

[5] = Population PK model of PB2452 alone (two-compartment, Cohorts 1-3); type: in vivo, human
Method: Population PK and PK/PD analyses were carried out using NONMEM version 7.4, PDx-Pop version 5.2 and Intel Visual Fortran Compiler version 12 on Microsoft Windows 10 Professional.
The models described in the following sections are non-linear hierarchical models that were fit using Bayesian Markov Chain Monte-Carlo (MCMC) techniques. If θ and φj represent vectors of individual PK and PD parameters, respectively, then it was assumed that they follow distributions with population parameters Θ and Φ, respectively. The parameters Θ and Φ were then assigned prior distributions according to the prior information available. The Bayesian analysis involved the estimation of the joint distribution of all parameters conditional on the observed data: p(θ, φ, Θ, Φ|PK and PD data), where θ and φ denote collections of all individual specific PK and PD parameters, respectively. Generating random samples from the joint posterior distribution allows the marginal distribution of each parameter to be completely characterized. More details on Bayesian methods in general may be found in (Lunn, Best, Thomas, Wakefield, & Spiegelhalter, 2002).
The MU referencing technique was utilized in NONMEM (Bauer, 2019). In particular, MU_1 (for example) was set equal to THETA(1). Then a particular model parameter was set equal to EXP(MU_1+ETA(1)). So, THETA represents the population value of the parameter on the log-scale. This usually helps to improve the efficiency (speed of convergence, reduced autocorrelation) of the algorithms (MCMC, but also applies to other “advanced” algorithms available) utilized.
as §1

[6] = read-out: Kd (affinity of PB2452 for TICA and TAM); fixed in model, chosen based on literature; cited from earlier work
[7] = tested on: P2Y12 receptor-induced platelet aggregation and P2Y12 receptor signaling; test: Phase 1 trial: reversal of the antiplatelet effects of ticagrelor (PRU/LTA/VASP); type: in vivo, human
Method: This model was developed during the conduct of the first-in-human study and used to inform dosing decisions throughout the study. The model was then updated with final data from the trial and will be used to inform subsequent early-phase clinical trials being conducted.
The study had 10 cohorts of healthy volunteers.
Subjects in Cohorts 4-10 were pretreated with ticagrelor for 48 hours. The first dose of ticagrelor was an oral loading dose of 180 mg followed by 90 mg administered orally twice daily for 2 days.

[8] = tested on: metabolism of TICA to TAM; test: Final population PK/PD model: metabolism of TICA as a function of PB2452 concentration; type: in vivo, human; conditions: value is natural log of Emaxf
Description: as §2

[9] = 6 g IV bolus, then 6 g over 4 h, then 6 g over 12 h, study subjects pretreated with ticagrelor
[10] = cohorts 4, 5 and 6 (1, 3, 9 g PB2452 over 30 minutes)

Molecule: CCCSc1nc(N[C@@H]2C[C@H]2c2ccc(F)c(F)c2)c2nnn([C@@H]3C[C@H](O)[C@@H](O)[C@H]3O)c2n1 [TAM]
- THETA9 final estimate; Emax2 = EXP(THETA9), Emax for relating TAM to PRU ([1]; value is natural log of Emax2): 0.0181

Molecule: CSCCNc1nc(SCCC(F)(F)F)nc2c1ncn2[C@@H]1O[C@H](COP(=O)(O)OP(=O)(O)C(Cl)(Cl)P(=O)(O)O)[C@@H](O)[C@H]1O [cangrelor]
- Inhibition of PB2452 binding to biotinylated ticagrelor [2]: No inhibition

Molecule: NS(=O)(=O)c1cc2c(cc1Cl)NC(C1CC3C=CC1C3)NS2(=O)=O (stereo not shown) [cyclothiazide]
- Inhibition of PB2452 binding to biotinylated ticagrelor [2]: No inhibition

Molecule: CC1(C)C(C=C(Cl)Cl)C1C(=O)OC(C#N)c1ccc(F)c(Oc2ccccc2)c1 (stereo not shown) [cyfluthrin]
- Inhibition of PB2452 binding to biotinylated ticagrelor [2]: No inhibition

Molecule: CCCC(=O)Nc1ncnc2c1ncn2[C@@H]1O[C@@H]2COP(=O)(O)O[C@H]2[C@H]1OC(=O)CCC [bucladesine]
- Inhibition of PB2452 binding to biotinylated ticagrelor [2]: No inhibition

Molecule: COC(=O)C1=C(C#N)NC(C)=C(C(=O)OC(C)C)C1c1cccc([N+](=O)[O-])c1 (stereo not shown) [nilvadipine]
- Inhibition of PB2452 binding to biotinylated ticagrelor [2]: No inhibition

Molecule: O=C1CCc2cc(OCCCCc3nnnn3C3CCCCC3)ccc2N1 [cilostazol]
- Inhibition of PB2452 binding to biotinylated ticagrelor [2]: No inhibition

Molecule: Nc1ncnc2c1ncn2[C@@H]1O[C@H](COP(=O)(O)OP(=O)(O)O)[C@@H](O)[C@H]1O [ADP, adenosine diphosphate]
- Inhibition of PB2452 binding to biotinylated ticagrelor [2]: No inhibition

Molecule: CCCSc1nc(N[C@@H]2C[C@H]2c2ccc(F)c(F)c2)c2nnn([C@@H]3C[C@H](OCCO)[C@@H](O)[C@H]3O)c2n1 [TICA, (1S,2S,3R,5S)-3-[7-{[(1R,2S)-2-(3,4-difluorophenyl)cyclopropyl]amino}-5-(propylthio)-3H-[1,2,3]triazolo[4,5-d]pyrimidin-3-yl]-5-(2-ydroxyethoxy)cyclopentane-1,2-diol]
- Emax parameter relating TICA to PRU (as well as VASP and LTA) [3]: 90%
- Range of uncomplexed TICA expected based on the model ([4]; model-based concentration): less than 2000 nmol/L
- Metabolism for TICA to TAM corresponding to fm ([4]; when no PB2452 is present): about 23%
- EC50 ([1]; Homo sapiens, read-out: EC50 (Emax model relating uncomplexed analyte to PD measure)): > 20000 nM
- THETA1 final estimate; EC50 (nmol/L) = EXP(THETA1), EC50 for relating TICA to PRU ([1]; value is natural log of EC50 in nmol/L): 10.6

Molecule: CNC(=O)c1cnn(-c2nc(N)c3ncn([C@@H]4O[C@H](CO)[C@@H](O)[C@H]4O)c3n2)c1 [regadenoson]
- Inhibition of PB2452 binding to biotinylated ticagrelor [2]: No inhibition

Molecule: CC(=O)NC[C@H]1CN(c2ccc(N3CCOCC3)c(F)c2)C(=O)O1 [linezolid]
- Inhibition of PB2452 binding to biotinylated ticagrelor [2]: No inhibition

Molecule: CC[C@H](C)C(=O)O[C@H]1C[C@@H](C)C=C2C=C[C@H](C)[C@H](CC[C@@H]3C[C@@H](O)CC(=O)O3)[C@H]21 [lovastatin]
- Inhibition of PB2452 binding to biotinylated ticagrelor [2]: No inhibition

Molecule: Nc1ncnc2c1ncn2[C@@H]1O[C@H](CO)[C@@H](O)[C@H]1O [adenosine]
- Inhibition of PB2452 binding to biotinylated ticagrelor [2]: No inhibition

Molecule: Nc1ncnc2c1ncn2[C@@H]1O[C@H](COP(=O)(O)OP(=O)(O)OP(=O)(O)O)[C@@H](O)[C@H]1O [ATP, adenosine triphosphate]
- Inhibition of PB2452 binding to biotinylated ticagrelor [2]: No inhibition

B1: PB2452: recombinant human IgG1λ monoclonal Fab antibody fragment that binds specifically to ticagrelor and TAM (antibody, listed as Homo sapiens)
heavy: QVQLQESGAEVKKPGSSVRVSCKASGGTFDSYSIHWVRQAPGQGLEWMGGIIPAFGTLSSAQDFQARVTISADKSTSTAYMELSGLRSEDTAVYYCARGSFDYYFWSASHPPNDALAIWGQGTLVTVSSASTKGPSVFPLAPSSKSTSGGTAALGCLVKDYFPEPVTVSWNSGALTSGVHTFPAVLQSSGLYSLSSVVTVPSSSLGTQTYICNVNHKPSNTKVDKRVEPKSCDK
light: QSVVTQPPSVSAAPGQKVTISCSGSNSDIGNNYVSWYQQLPGTAPKLLIYDNNKRPSGIPDRFSGSKSGTSATLAITGLQAGDEADYYCGTWLYDRAVGLFGGGTKVTVLGQPKAAPSVTLFPPSSEELQANKATLVCLISDFYPGAVTVAWKADSSPVKAGVETTTPSKQSNNKYAASSYLSLTPEQWKSHRSYSCQVTHEGSTVEKTVAPTECS
modifications: PB2452 VH with CH1; PB2452 VL with CL
- Central volume of distribution ([5]; IV, Cohorts 1-3): 2.86 L
- Clearance ([5]; IV, Cohorts 1-3): 1.88 L/h
- Half-life for the distribution phase ([5]; IV, Cohorts 1-3): 0.81 h
- Half-life for the elimination phase ([5]; IV, Cohorts 1-3): 6.68 h
- THETA3 final estimate; Q (L/hr) = EXP(THETA3) ([5]; value is natural log of Q in L/hr): −0.770
- THETA2 final estimate; V1 (L) = EXP(THETA2) ([5]; value is natural log of V1 in L): 1.05
- THETA4 final estimate; V2 (L) = EXP(THETA4) ([5]; value is natural log of V2 in L): 1.24
- Kd [6]: 0.018 nM
- Time for which complete reversal was sustained [7, 9]: 20 to 24 h
- Time from infusion onset to complete reversal of the antiplatelet effects of ticagrelor [7, 9]: ≤ 5 min
- Effect of higher dose and prolonged infusion on PRU ([7]; cohort 7 and those that followed (18 g, bolus plus prolonged infusion)): prolonged the increase in PRU
- Effect on PRU after cessation of infusion ([7]; cohort 7 and those that followed, despite dose escalation): unexpected loss of effect was observed post-cessation of the drug infusion
- Duration of early effect on PRU before return to post-TICA levels [7, 10]: less than two
- Early effect on PRU [7, 10]: the PRU values were increased close to values before TICA was administered
- THETA4 final estimate; Ktr (hr^−1) = EXP(THETA4 + THETA13*(LOG(WT) − 4.35)) ([4]; value is natural log of Ktr, rate at which PB2452-TICA and PB2452-TAM complexes move through the added compartments): −1.22
- THETA6 final estimate; Emaxf = EXP(THETA6), Emax for relating metabolism of TICA to PB2452 concentrations [8]: 2.98
